# Test results published in patent publication US11484533B2, “Methods and compositions for treating obesity” (UNIVERSITY OF SOUTH CAROLINA, priority 2019, dated 2022).
# What was measured:
# DIO mice [1] = details: cited from earlier work
# obese patients = details: cited from earlier work
# macrophage CB1 = experiment: BMDM treated in vitro with 3T3-L1 adipocyte conditioned medium and SR141716A; type: cell-based, mouse; details: adipocyte conditioned medium, vs DMSO
# Protocol: TNF, IL-6, and IFNγ ELISA kits were purchased from BioLegend. Netrin-1 ELISA kits were purchased from USCN Life Science (Houston, Tex.). Concentrations were measured in cell supernatants using mouse standards according to the manufacturer's guidelines.
# Next, to confirm that the M2 polarization and decreased ATM retention observed in HFD+SR treated mice was a direct effect of CB1 blockade and not a secondary effect due to weight loss or other factors, primary macrophages were treated in vitro with 3T3-L1 adipocyte conditioned media and SR141716A or DMSO vehicle control. […] These findings confirmed that blockade of macrophage CB1 signaling has anti-inflammatory effects.
# [2] = test system: adipose tissue macrophages (ATMs); experiment: qRT-PCR and Western blot in adipose tissue macrophages (ATM) of treated DIO mice; type: in vivo, C57BL/6J male mice
# Protocol: Epididymal fat pads of mice were excised and placed in gentleMACS™ C Tubes (Miltenyi Biotec, San Diego, Calif.) containing digestion medium (HBSS, 2 mg/ml collagenase (Sigma-Aldrich, St. Louis, Mo.) and 2% BSA), followed by homogenization utilizing a gentleMACS™ Dissociator (Miltenyi Biotec). After incubation at 37° C. for 30 minutes with gentle shaking, the cell suspension was filtered through a 100-μm filter and then spun at 300 g for 5 minutes to separate floating adipocytes from the stromal vascular fraction (SVF) pellet. Isolation of F4/80+ ATMs from the SVF was performed using EasySep™ FITC Positive Selection Kit (STEMCELL Technologies, Vancouver, B.C.). FITC-anti-F4/80 antibodies (Clone: BM8, BioLegend®, San Diego, Calif.) were used to label the cells for positive selection. Isolated cells were lysed for RNA analysis in QIAzol (Qiagen, Valencia, Calif.) and stored at −80° C. until RNA purification.
# ATM RNA was isolated by miRNeasy Mini Kit (Qiagen). For RNA extraction from whole adipose tissue, 1 mg of adipose tissue was homogenized in RNA-Solv® Reagent with OBI's HiBind® technology reagent (Omega Bio-tek, Norcross, Ga.) and total RNA was isolated as previously described (31). RNA quality was verified by NanoDrop™ 2000C (Thermo Scientific™, Waltham, Mass.). Purified RNA (0.5-1 μg) was reverse-transcribed using miScript cDNA Synthesis Kit (Qiagen), and qRT-PCR analysis was conducted using SsoAdvanced™ Universal SYBR® Green Supermix kit (Bio-Rad, Hercules, Calif.). Fold change in mRNA expression was calculated using the comparative cycle method (2^−ΔΔCt).
# Western blot analyses were carried out according to standard protocols with antibodies raised against Netrin-1 (R&D Systems, Minneapolis, Minn.) or γ-tubulin (Sigma-Aldrich, St. Louis, Mo.), which was used as a loading control.
# [3] = test system: epididymal adipose tissue; experiment: qRT-PCR of macrophage polarization genes in epididymal fat of DIO mice; type: in vivo, C57BL/6J male mice
# Protocol: (§1) C57BL/6J male mice (Jackson Laboratory, Bar Harbor, Me.) were fed HFD consisting of 60% Kcal from fat (D12492, Research Diets Inc, New Brunswick, N.J.) for 12 weeks before starting the intervention treatment with SR141716A. Additionally, age-matched C57BL/6J male mice were fed a low fat diet (LFD) consisting of 10% Kcal from fat (D12450J, Research Diets Inc, New Brunswick, N.J.) to develop lean controls. SR141716A was obtained from NIDA and administered at a dose of 10 mg/kg daily by oral gavage for 4 weeks, beginning after 12 weeks of diet and ending after 16 weeks. A pair-fed control group was used (HFD-PFSR) in which food intake was restricted to the amount of daily food intake of the HFD+SR group. All mice were maintained in an AAALAC-accredited animal facility at the University of South Carolina, School of Medicine (Columbia, S.C.). All procedures were performed according to NIH guidelines under protocols approved by the Institutional Animal Care and Use Committee.
# After 4 weeks of treatment, mice were euthanized for tissue collection. Tissues were removed, weighed, and immediately processed to single cell suspension, snap-frozen in liquid nitrogen and stored at −80° C., or fixed in 10% formalin.
# ATM RNA was isolated by miRNeasy Mini Kit (Qiagen). […] Fold change in mRNA expression was calculated using the comparative cycle method (2^−ΔΔCt).
# DIO mice [4] = experiment: Diet-induced obesity (DIO) mice treated with SR141716A: body weight, caloric intake, DEXA body composition; type: in vivo, C57BL/6J male mice
# Protocol: as §1
# The body composition in mice was analyzed by dual-energy X-ray absorptiometry (DEXA, LUNAR, Madison, Wis.). The mice were anesthetized and placed in the prone position on the specimen tray to allow scanning of the entire body. For food intake measurements, mice were given a defined amount of large intact food pellet weekly, or daily for the HFD-PFSR group. Food weight was measured using a balance with a precision of 0.01 g. Solid food intake was corrected for any visible spillage.
# To study the effects of CB1 antagonist on obesity parameters, DIO mice that were fed a 60% HFD for 12 weeks were treated with SR141716A (SR) by daily oral gavage for 4 weeks (FIG. 1A). All other experimental groups were treated with the vehicle (Veh) 0.1% Tween® 80. In addition to the HFD+SR group, other experimental groups included mice fed a 10% low-fat control diet (LFD) (LFD+Veh), ad-libitum HFD-fed mice (HFD+Veh), and HFD-fed mice that were pair-fed to the HFD+SR group (HFD-PFSR) (FIG. 1B). […] At the baseline of the study, the mice were stratified into groups balanced by mean fat mass. […] Fasting parameters including blood glucose, insulin, insulin resistance index (HOMA-IR), total cholesterol and triglycerides were examined pre- and post- the 4-week intervention with SR compound.
# [5] = test system: thioglycollate-elicited peritoneal macrophages; experiment: Migration of peritoneal macrophages towards CCL19; type: cell-based, mouse; details: SR141716A 10^−6 M vs DMSO; CCL19 500 ng/ml; 3T3-L1 conditioned medium
# Protocol: The migration of macrophages to CCL19 (500 ng/ml, R&D Systems) was assessed by FluoroBlock™ permeable inserts (Corning®, Tewksbury, Mass.) and Cytation™5 imaging (BioTek, Winooski, Vt.). Peritoneal macrophages were harvested from mice primed with 1 ml of 3% (wt/vol) thioglycolate (i.p.) to elicit peritoneal exudates with macrophage number peaking on day 4. Macrophages were collected in euthanized mice by intraperitoneal wash. For tracking migration towards chemoattractants, macrophages were labeled with DilC12(3) fluorescent dye (Corning®, Tewksbury, Mass.). Macrophages were treated with conditioned media from 3T3-L1 adipocytes as described and treated either with SR141716A (10^−6 M) or DMSO as the vehicle control.
# To test this, thioglycollate-elicited peritoneal macrophages were isolated and cultured them in 3T3-L1 adipocyte conditioned medium and treated them with SR141716A or vehicle. Their migration rate towards CCL19 was measured because CCL19 is the primary chemokine implicated in emigration of tissue macrophages towards draining lymph nodes.
# DIO mice [6] = experiment: Fasting metabolic parameters in DIO mice, pre- and post-intervention; type: in vivo, C57BL/6J male mice; details: HFD+SR vs HFD+Veh and HFD-PFSR; pre- and post- 4-week intervention; 5 h fasted
# Protocol: as §1, with “All mice were maintained in an AAALAC-accredited animal facility at the University of South Carolina, School of Medicine (Columbia, S.C.). All procedures were performed according to NIH guidelines under protocols approved by the Institutional Animal Care and Use Committee.” left out
# Measurements of blood glucose, insulin, total cholesterol, and triglycerides were performed in animals fasted for 5 hours. […] The glucose level in whole blood was measured with a glucometer (Bayer, Leverkusen, Germany). Insulin concentration was determined in isolated plasma using an ELISA kit (Abcam, Cambridge, Mass.). Total cholesterol (Genzyme, Kent, United Kingdom) and triglycerides (Pointe Scientific, Canton, Mich.) were determined by colorimetric enzymatic reaction according to the manufacturer's instructions. To quantify insulin resistance, the homeostatic model assessment of insulin resistance index (HOMA-IR) was calculated as previously described.
# [7] = epididymal adipose tissue of DIO mice, previous report
# [8] = DIO mice, 10 mg/kg daily oral gavage, 4 weeks
# [9] = after 4 weeks of treatment, HFD+SR vs both HFD+Veh and HFD-PFSR, DEXA
compound,measurement,setting,value
"Cc1c(C(=O)NN2CCCCC2)nn(-c2ccc(Cl)cc2Cl)c1-c1ccc(Cl)cc1 [SR141716A, 5-(4-chlorophenyl)-1-(2,4-dichlorophenyl)-4-methyl-N-piperidin-1-ylpyrazole-3-carboxamide]",number of pro-inflammatory M1 macrophages in adipose tissue,"DIO mice [1]; HFD+SR vs HFD+Veh, previously demonstrated",significant decrease
same,ATM infiltration,DIO mice [1]; [7],reduces both ATM infiltration and M1 polarization
same,M1 polarization,DIO mice [1]; [7],reduces both ATM infiltration and M1 polarization
same,weight loss,"obese patients; obese patients, compared with placebo",greater weight loss
same,adverse effects,obese patients; reason for removal from the market,adverse psychiatric effects
same,Klf4 expression,macrophage CB1; BMDM,induction of Klf4 and Stat6
same,Stat6 expression,macrophage CB1; BMDM,induction of Klf4 and Stat6
same,Netrin-1 secretion,"macrophage CB1; macrophages, ELISA",reduced
same,Netrin-1 expression at protein and transcription level,"[2]; ATM, HFD+SR vs HFD+Veh, Western blot and qRT-PCR",significantly reduced
same,miR-466 family expression,"[2]; ATMs, microarray validated by qRT-PCR, regardless of calorie intake",down-regulated
same,Agap2 expression,"[2]; ATMs, qRT-PCR",increased
same,miR-762 expression,"[2]; ATMs, qRT-PCR",reduced
same,Unc5b expression,[2]; HFD+SR vs HFD+Veh,downregulated
same,Arg1 (M2) expression,[3],increased expression of Arg1
same,Nos2 (M1) expression,[3],lowered Nos2 expression
same,body weight,DIO mice [4]; [8],acute and persistent weight loss
same,calorie intake,DIO mice [4]; [8],transient reduction of calorie intake
same,changes in lean mass,"DIO mice [4]; after 4 weeks of treatment, HFD+SR vs HFD+Veh and HFD-PFSR, DEXA",not significant
same,fat mass,DIO mice [4]; [9],reduction in the fat mass and fat percentage was significant
same,fat percentage,DIO mice [4]; [9],reduction in the fat mass and fat percentage was significant
same,migration towards CCL19,[5],higher migration towards CCL19
same,"metabolic parameters (fasting blood glucose, insulin, HOMA-IR, total cholesterol, triglycerides)",DIO mice [6],improvement in metabolic parameters
